From article PMC4206221 (Science signaling, 2011)

Tests used:
[1] = biological target: PLK3 (Homo sapiens, UniProt Q9H4B4); test: kinase inhibition IC50; format: biochemical
[2] = biological target: PLK1 (Homo sapiens, UniProt P53350); test: kinase inhibition IC50; format: biochemical
Chain of PLK1 (P53350 2-603): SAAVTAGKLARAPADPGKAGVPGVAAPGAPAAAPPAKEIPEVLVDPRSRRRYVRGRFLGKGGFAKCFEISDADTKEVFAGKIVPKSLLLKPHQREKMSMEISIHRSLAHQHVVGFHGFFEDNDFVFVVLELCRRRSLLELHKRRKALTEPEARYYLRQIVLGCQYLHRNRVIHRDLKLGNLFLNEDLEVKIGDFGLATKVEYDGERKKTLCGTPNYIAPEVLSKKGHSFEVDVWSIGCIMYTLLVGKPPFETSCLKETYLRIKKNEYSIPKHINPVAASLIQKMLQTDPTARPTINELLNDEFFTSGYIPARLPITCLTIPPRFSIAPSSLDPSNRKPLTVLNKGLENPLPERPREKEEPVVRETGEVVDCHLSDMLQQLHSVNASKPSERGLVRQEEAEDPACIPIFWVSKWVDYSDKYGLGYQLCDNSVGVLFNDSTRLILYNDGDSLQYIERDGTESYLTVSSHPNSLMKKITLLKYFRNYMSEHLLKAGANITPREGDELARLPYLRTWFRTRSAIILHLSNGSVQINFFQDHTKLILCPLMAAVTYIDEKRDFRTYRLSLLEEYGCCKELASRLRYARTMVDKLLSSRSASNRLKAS

Chain of PLK3 (Q9H4B4 whole entry): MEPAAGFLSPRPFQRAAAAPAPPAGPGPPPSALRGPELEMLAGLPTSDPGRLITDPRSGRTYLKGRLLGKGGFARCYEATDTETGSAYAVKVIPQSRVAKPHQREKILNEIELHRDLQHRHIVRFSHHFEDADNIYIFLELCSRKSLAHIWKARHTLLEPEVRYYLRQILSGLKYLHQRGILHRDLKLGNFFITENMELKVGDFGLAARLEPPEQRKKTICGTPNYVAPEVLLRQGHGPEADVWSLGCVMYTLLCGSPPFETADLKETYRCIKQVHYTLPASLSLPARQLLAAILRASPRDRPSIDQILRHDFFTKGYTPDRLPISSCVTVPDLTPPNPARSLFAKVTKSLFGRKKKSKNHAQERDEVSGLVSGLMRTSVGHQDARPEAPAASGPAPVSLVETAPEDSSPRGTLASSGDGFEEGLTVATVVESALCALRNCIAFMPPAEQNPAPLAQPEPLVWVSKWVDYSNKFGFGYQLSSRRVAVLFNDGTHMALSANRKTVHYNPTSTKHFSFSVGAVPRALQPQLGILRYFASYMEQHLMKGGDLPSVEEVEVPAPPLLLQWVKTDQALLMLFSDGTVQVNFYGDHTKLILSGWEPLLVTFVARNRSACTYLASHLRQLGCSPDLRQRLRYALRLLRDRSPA

Compound: CC[C@@H]1C(=O)N(C)c2cnc(Nc3ccc(C(=O)NC4CCC(N5C[C@@H](C)O[C@@H](C)C5)CC4)cc3OC)nc2N1C(C)C (some centres unmarked) [BI 4834]
- IC50 [1]: 198 nM
- IC50 [2]: 7.6 nM
